Assay results reported in patent US10052281B2, “Local administration-type pharmaceutical for improving dysphagia” (MEIJI SEIKA PHARMA CO., LTD., priority 2011, dated 2018).
“Also recorded” adds a separate entry of the source.

Tests used:
[1] = tested on: guinea pig dysphagia model induced by repeated administrations of haloperidol; assay: Swallowing reflex (water drinking frequency) in dysphagia model induced by repeated administrations of haloperidol; type: in vivo; details: for water drinking frequency (dysphagia improving effect): oral (intragastric)
normal guinea pig = assay: Swallowing reflex in normal guinea pig after local pharyngeal administration of substance P receptor antagonist; type: in vivo
Method: (§1) To 6 week-old female Hartley guinea pigs (330 to 390 g) habituated for 1 week after receipt, a physiological saline solution, or a haloperidol solution was injected subcutaneously in a dosage of 1 mg/kg approx. every 12 hours twice per day for 7 days. Thereafter, a guinea pig was fixed at extremities, and 500 μL of distilled water was injected over 5 sec through a device to a part just before the pharynx, and the total frequency of swallowing until 10 sec and 30 sec from the injection was measured based on a muscle movement in a pharyngeal site. Thereafter a physiological saline solution, or a haloperidol solution was injected again (1 mg/kg).
FK888 (10 μM, 50 μL/guinea pig), which is a substance P receptor antagonist, was administered locally with a spray device to a pharyngeal site of a guinea pig, and water drinking reflection frequency was measured in the same way as in Experiment 1.

Hartley guinea pigs = assay: Swallowing reflex (water drinking frequency) after repeated administrations of haloperidol; type: in vivo, guinea pig; details: haloperidol 1 mg/kg s.c. twice per day for 7 days, compared to physiological saline group
Method: as §1
The measurements were repeated totally 4 times at intervals of 1 min. […] Based on the result, the guinea pig was used as a dysphagia model induced by repeated administrations of haloperidol in the following experiments for evaluation of drug efficacy.

[2] = tested on: guinea pig dysphagia model induced by repeated administrations of haloperidol; assay: Swallowing reflex (water drinking frequency) in dysphagia model induced by repeated administrations of haloperidol; type: in vivo; details: local spray to pharyngeal mucosa, 100 μL of 50 μM aqueous solution, 2 hours after administration
[3] = tested on: blood pressure increase by intravenous administration of angiotensin I in a normal rat; assay: Blood pressure increase induced by intravenous angiotensin I; details: oral, angiotensin I 300 ng/kg i.v. after 1 hour, SD male rats
Method: The respective dose of a captopril, or lisinopril aqueous solution was administered orally and the blood pressures were measured after 1 hour. Thereafter, angiotensin I was administered intravenously (300 ng/kg) to induce blood pressure increase and a change in the mean blood pressure was measured.

Compound: CN(Cc1ccccc1)C(=O)[C@H](Cc1ccc2ccccc2c1)NC(=O)[C@@H]1C[C@@H](O)CN1C(=O)c1cn(C)c2ccccc12 [FK888]
- lower limit not influencing swallowing reflex ([1]; 100 μL local spray to pharyngeal mucosa): 10 nM
- increase in water drinking frequency by lisinopril (50 nM, 100 μL) ([1]; FK888 10 nM, 100 μL, local spray 15 min after lisinopril administration): almost completely suppressed
- swallowing reflex (water drinking reflection frequency) (normal guinea pig; FK888 10 μM, 50 μL/guinea pig, local spray to pharyngeal site): decrease in swallowing reflex

Compound: C[C@H](CS)C(=O)N1CCC[C@H]1C(=O)O [captopril]
- water drinking frequency ([1]; 100 μL of 50 μM aqueous solution sprayed to pharyngeal mucosa, 30 min after spray): significant increase; also recorded: exhibited an improving effect on dysphagia
- water drinking frequency ([1]; 100 μL of 50 mM aqueous solution sprayed to pharyngeal mucosa, 30 min after spray): significant increase; also recorded: exhibited an improving effect on dysphagia
- water drinking frequency (dysphagia improving effect) ([1]; same dose as 100 μL of 50 μM aqueous solution, 30 min after administration): did not exert an influence
- water drinking frequency (dysphagia improving effect) ([1]; same dose as 100 μL of 50 mM aqueous solution, 30 min after administration): did not exert an influence
- decrease in swallowing reflex by FK888 administration (normal guinea pig; captopril aqueous solution sprayed to pharyngeal site 30 min before FK888): suppressed

Compound: O=C(CCCN1CCC(O)(c2ccc(Cl)cc2)CC1)c1ccc(F)cc1 [haloperidol]
- water drinking frequency (Hartley guinea pigs): significantly decreased

Compound: NCCCC[C@H](N[C@@H](CCc1ccccc1)C(=O)O)C(=O)N1CCC[C@H]1C(=O)O [lisinopril]
- dose giving significant increase in water drinking frequency ([1]; 100 μL aqueous solution sprayed to pharyngeal mucosa): ≥ 50 nM
- water drinking frequency ([1]; 100 μL of 0.5 nM to 500 μM aqueous solution (pH 7.0) sprayed to pharyngeal mucosa): dose-dependent increase
- water drinking frequency ([1]; 100 μL of 50 nM aqueous solution sprayed to pharyngeal mucosa, 30 min after administration): increase in water drinking frequency
- water drinking frequency (dysphagia improving effect) ([1]; same dose as the local administration (100 μL of 50 mM), 2 hours after administration): exerted no influence; also recorded: no dysphagia improving effect was observed
- water drinking frequency (dysphagia improving effect) [2]: exhibited an improving effect on dysphagia
- vasopressor reaction by administration of angiotensin I (change in mean blood pressure) ([3]; 100 μL of 5 μM aqueous solution): had no influence
- vasopressor reaction by administration of angiotensin I (change in mean blood pressure) ([3]; 100 μL of 5 mM aqueous solution): suppressed a vasopressor reaction
